Laboratory results reported in patent US20040121004A1, “Dosage forms containing a PPI, NSAID, and buffer” (priority 2002, published 2004).

Columns and labels:
[1] = PPI/NSAID drug substance compatibility (storage stability of mixtures); format: physicochemical
Procedure: Various NSAIDs were combined with lansoprazole with and without a buffer to determine the compatibility of the components. The various mixtures were placed at room temperature and 40° C. with 75% relative humidity. The samples were tested initially and after two weeks at the storage conditions above. The results are reported in Table 1 below as a percent of the theoretical amount of a given component.

[2] = Substance compatibility in granulations: potency by HPLC, initially and after storage; format: physicochemical; settings: for Potency NSAID, 2 Weeks Extreme Conditions: 2 weeks at 40° C. with 75% to 85% relative humidity; for Potency NSAID, 4 Weeks Extreme Conditions: 4 weeks at 40° C. with 75% to 85% relative humidity; for Potency NSAID, 19 Days RT: 19 days at room temperature; for Potency NSAID, 33 Days RT: 33 days at room temperature
Procedure: In this example, granulations of a PPI and various NSAIDs were prepared to determine the compatibility of these substances with each other in a granulated form.
The potency (mg/g) of each drug substance in each granulation was determined by HPLC.
Granulations A, C, and D, as well as naproxen and piroxicam drug substances were weighed and separately placed in scintillation vials and stored at room temperature (RT) and at 40° C. with 75% to 85% relative humidity (“Extreme Conditions”). Granulations A, C, and D, as well as the naproxen and piroxicam, were tested for potency of the lansoprazole and NSAID after 19 and 33 days at the room temperature conditions and after two and four weeks under the Extreme Conditions.

## Cc1c(OCC(F)(F)F)ccnc1C[S+]([O-])c1nc2ccccc2[nH]1 (centres unmarked) [Lansoprazole, lansoprazole]
[1]; initial, percent of theoretical amount of lansoprazole
  % of Theory, lansoprazole, Initial: 100.8/NA %
[1]; two weeks at 40° C. with 75% relative humidity
  % of Theory, lansoprazole, 40° C. 75% humidity: 99.1/NA %
[1]; two weeks at room temperature
  % of Theory, lansoprazole, Room Temp.: 99.1/NA %

## COc1ccc2cc([C@H](C)C(=O)O)ccc2c1 [Naproxen, naproxen]
[2]
  Potency NSAID, 2 Weeks Extreme Conditions: NA/996.7 mg/g
  Potency NSAID, 4 Weeks Extreme Conditions: NA/1000.9 mg/g
  Potency NSAID, 19 Days RT: NA/997.2 mg/g
  Potency NSAID, 33 Days RT: NA/998.2 mg/g

## CN1C(C(=O)Nc2ccccn2)=C(O)c2ccccc2S1(=O)=O [Piroxicam, piroxicam]
[2]
  Potency NSAID, 2 Weeks Extreme Conditions: NA/942.2 mg/g
  Potency NSAID, 4 Weeks Extreme Conditions: NA/1005.5 mg/g
  Potency NSAID, 19 Days RT: NA/1027.1 mg/g
  Potency NSAID, 33 Days RT: NA/998.5 mg/g
